The source of these data is US11753407B2, “Compounds for treating spinal muscular atrophy” (PTC Therapeutics, Inc., priority 2012, dated 2023).

The subject of series [1] is Smn protein in SMA patient fibroblast cells (GM03813). Nature of the series: Smn protein assay in cultured cells (SMN HTRF). The format is cell-based, human. Particulars: SMA patient fibroblast cells, 48 hours; for maximum fold (Fold) increase of Smn protein: 7-point concentration data, fold relative to vehicle control; for EC1.5x for Smn protein expression: 7-point concentration curve, SMN HTRF, concentration producing 1.5 times Smn protein vs DMSO vehicle control. The procedure, abridged:
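Smn protein quantified by HTRF with anti-SMN d2/kryptate pair, 665/620 nm ratio blank-corrected, in RIPA lysates of GM03813 fibroblasts after 48 h compound exposure (7 concentrations, 3.16-fold steps, triplicates). Values: concentration producing 1.5× vehicle Smn level, and maximal fold increase.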
On the technique in general: Time-resolved FRET reads energy transfer from a long-lived donor to a nearby acceptor.

In series [2] the test system is SMN2 minigene mRNA (SMN2-A minigene) in HEK293H cells. Description: SMN2 minigene mRNA splicing RT-qPCR assay in cultured cells. In kind it is cell-based, human. The note with it: Homo sapiens, HEK293-H; concentration increasing full length SMN2 mRNA 1.5-fold relative to vehicle-treated cells; HEK293H cells with SMN2-A minigene, 24 hours, 7-point concentration data; read-out: EC1.5x for production of full length SMN2 mRNA. In short, it runs like this:
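EC1.5× = concentration raising full-length SMN2 minigene mRNA 1.5-fold over vehicle, from 7-point curves in duplicate. Stably transfected HEK293H cells exposed 24 h at 37 °C; lysates assayed by multiplex RT-qPCR, minigene FL signal normalized to GAPDH via modified ΔΔCt.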
On the technique in general: In qPCR the cycle at which signal appears reflects the starting amount.

Molecules are shown by their SMILES.

For the compound `COc1ccc(-c2cnc3cc(N4CCNCC4)ccn3c2=O)cc1OC` [Cpd 52, 3-(3,4-dimethoxyphenyl)-8-(piperazin-1-yl)-4H-pyrido[1,2-a]pyrimidin-4-one], the melting point (usually the temperature of the solid-liquid transition) lay in the range of 175 to 179 °C. In addition, the “maximum fold (Fold) increase of Smn protein” value (“maximum fold (Fold) increase” for short) in series [1] was “* (A maximum fold increase of ≤1.2 is indicated by one star (*))”. For the same compound, the EC (1.5-fold increase) in series [2] was 3 to 30 µM.
With `CCc1cc(-c2cc(=O)n3cc(N4CCN(CC)[C@H](C)C4)ccc3n2)cn2cc(C)nc12` [Compound 701, 2-(8-ethyl-2-methylimidazo[1,2-a]pyridin-6-yl)-7-[(3R)-4-ethyl-3-methylpiperazin-1-yl]-4H-pyrido[1,2-a]pyrimidin-4-one], the melting point was in the range of 179 to 182 °C. Further, in series [1], the “EC1.5x for Smn protein expression” value was “**** (an EC1.5x≤0.3 μM is indicated by four stars (****))” and the “maximum fold (Fold) increase” value is recorded as “***** (a fold increase >1.65 is indicated by five stars (*****))”. Besides, the EC (1.5-fold increase) in series [2] is under 0.1 µM.
The compound `COc1ccc(-c2cc(=O)n3cc(C4=CCN(C)CC4)c(C)cc3n2)cc1OC` [Compound 391, 2-(3,4-dimethoxyphenyl)-8-methyl-7-(1-methyl-1,2,3,6-tetrahydropyridin-4-yl)-4H-pyrido[1,2-a]pyrimidin-4-one] displayed a melting point of 174 to 178 °C. Also, the “maximum fold (Fold) increase” value in series [1] is “* (A maximum fold increase of ≤1.2 is indicated by one star (*))”. In addition, the EC (1.5-fold increase) in series [2] fell in the range of 1 to 3 µM.
In turn, `Cc1cn2cc(-c3cc(=O)n4cc(C5CCNCC5)ccc4n3)cc(Cl)c2n1` [Compound 516, 2-(8-chloro-2-methylimidazo[1,2-a]pyridin-6-yl)-7-(piperidin-4-yl)-4H-pyrido[1,2-a]pyrimidin-4-one] yielded a melting point of 287 to 293 °C. In addition, in series [1], the “EC1.5x for Smn protein expression” value is recorded as “**** (an EC1.5x≤0.3 μM is indicated by four stars (****))”; the “maximum fold (Fold) increase” value was “**** (a fold increase between >1.5 and ≤1.65 is indicated by four stars (****))”. The EC (1.5-fold increase) in series [2] is under 0.1 µM.
Compound `Cc1cn2nc(-c3cc(=O)n4cc(N5CCN(C)CC5)ccc4n3)cc2c(O)n1` [Cpd 626, 2-(4-hydroxy-6-methylpyrazolo[1,5-a]pyrazin-2-yl)-7-(4-methylpiperazin-1-yl)-4H-pyrido[1,2-a]pyrimidin-4-one] showed a melting point of 280 to 283 °C. In series [1], the “EC1.5x for Smn protein expression” value is “** (an EC1.5× between >1 μM and ≤3 μM is indicated by two stars (**))”; the “maximum fold (Fold) increase” value was “***** (a fold increase >1.65 is indicated by five stars (*****))”. The EC (1.5-fold increase) in series [2] lay in the range of 0.3 to 1 µM.
`C[C@@H]1CN(c2ccc3nc(-c4ccc5c(c4)OCO5)cc(=O)n3c2)CCN1` [Compound 20, 2-(1,3-benzodioxol-5-yl)-7-[(3R)-3-methylpiperazin-1-yl]-4H-pyrido[1,2-a]pyrimidin-4-one] showed a melting point of 195 to 197 °C. For the same compound, in series [1], the “EC1.5x for Smn protein expression” value is “** (an EC1.5× between >1 μM and ≤3 μM is indicated by two stars (**))”; the “maximum fold (Fold) increase” value is “**** (a fold increase between >1.5 and ≤1.65 is indicated by four stars (****))”. Moreover, the EC (1.5-fold increase) in series [2] lay within 1 to 3 µM.
For `COc1ccc(-c2cc(=O)n3cc(C4=CCC(N(C)C)CC4)ccc3n2)cc1OC` (centres unmarked) [Compound 367, 2-(3,4-dimethoxyphenyl)-7-[4-(dimethylamino)cyclohex-1-en-1-yl]-4H-pyrido[1,2-a]pyrimidin-4-one], the melting point was 162 to 164 °C. Moreover, in series [1], the “EC1.5x for Smn protein expression” value is “* (An EC1.5× for Smn protein expression between >3 μM and ≤10 μM is indicated by one star (*))”; the “maximum fold (Fold) increase” value is “*** (a fold increase between >1.35 and ≤1.5 is indicated by three stars (***))”. Further, the EC (1.5-fold increase) in series [2] was under 0.1 µM.
`CCCN1CC=C(c2cc(C)c3nc(-c4ccc(OC)c(OC)c4)cc(=O)n3c2)CC1` [Compound 378, 2-(3,4-dimethoxyphenyl)-9-methyl-7-(1-propyl-1,2,3,6-tetrahydropyridin-4-yl)-4H-pyrido[1,2-a]pyrimidin-4-one] yielded a melting point of 171 to 177 °C. Besides, in series [1], the “EC1.5x for Smn protein expression” value was “** (an EC1.5× between >1 μM and ≤3 μM is indicated by two stars (**))”; the “maximum fold (Fold) increase” value is “**** (a fold increase between >1.5 and ≤1.65 is indicated by four stars (****))”. The EC (1.5-fold increase) in series [2] was under 0.1 µM.
With `CCc1cn2cc(-c3cc(=O)n4cc(N5CCNCC5)ccc4n3)ccc2n1` [Compound 124, 2-(2-ethylimidazo[1,2-a]pyridin-6-yl)-7-(piperazin-1-yl)-4H-pyrido[1,2-a]pyrimidin-4-one], the melting point is 228 to 232 °C. Besides, the “maximum fold (Fold) increase” value in series [1] was “** (a fold increase between >1.2 and ≤1.35 is indicated by two stars (**))”. The EC (1.5-fold increase) in series [2] was in the range of 0.3 to 1 µM.
In the case of `COc1ncc(-c2cc(=O)n3cc(N4CCNCC4)ccc3n2)cc1F` [Cpd 182, 2-(5-fluoro-6-methoxypyridin-3-yl)-7-(piperazin-1-yl)-4H-pyrido[1,2-a]pyrimidin-4-one], the melting point is 166 to 170 °C. In series [1], the “EC1.5x for Smn protein expression” value was “*** (an EC1.5× between >0.3 μM and ≤1 μM is indicated by three stars (***))”; the “maximum fold (Fold) increase” value is “**** (a fold increase between >1.5 and ≤1.65 is indicated by four stars (****))”. Moreover, in series [2], the EC (1.5-fold increase) lay within 0.3 to 1 µM.
For the compound `COc1ccc(-c2cc(=O)n3cc(N4CCN[C@@H](C)C4)ccc3n2)c(OC)c1` [Compound 90, 2-(2,4-dimethoxyphenyl)-7-[(3S)-3-methylpiperazin-1-yl]-4H-pyrido[1,2-a]pyrimidin-4-one], the melting point is 172 to 177 °C. Also, in series [1], the “EC1.5x for Smn protein expression” value is “* (An EC1.5× for Smn protein expression between >3 μM and ≤10 μM is indicated by one star (*))”; the “maximum fold (Fold) increase” value was “*** (a fold increase between >1.35 and ≤1.5 is indicated by three stars (***))”. In series [2], the EC (1.5-fold increase) lay in the range of 1 to 3 µM.
Compound `Cn1cc2cc(-c3cc(=O)n4cc(N5CCN(CCO)CC5)ncc4n3)ccc2n1` [Compound 591, 7-[4-(2-hydroxyethyl)piperazin-1-yl]-2-(2-methyl-2H-indazol-5-yl)-4H-pyrazino[1,2-a]pyrimidin-4-one] displayed a melting point of 200 to 202 °C. For the same compound, in series [1], the “EC1.5x for Smn protein expression” value is “** (an EC1.5× between >1 μM and ≤3 μM is indicated by two stars (**))”; the “maximum fold (Fold) increase” value is “**** (a fold increase between >1.5 and ≤1.65 is indicated by four stars (****))”. Moreover, in series [2], the EC (1.5-fold increase) fell in the range of 0.3 to 1 µM.
Consider `C[C@H]1CN(c2ccc3nc(-c4cncc(Cl)c4)cc(=O)n3c2)CCN1` [Compound 95, 2-(5-chloropyridin-3-yl)-7-[(3S)-3-methylpiperazin-1-yl]-4H-pyrido[1,2-a]pyrimidin-4-one], for which the melting point lay within 227 to 232 °C. For the same compound, in series [1], the “EC1.5x for Smn protein expression” value was “** (an EC1.5× between >1 μM and ≤3 μM is indicated by two stars (**))”; the “maximum fold (Fold) increase” value was “**** (a fold increase between >1.5 and ≤1.65 is indicated by four stars (****))”. Moreover, in series [2], the EC (1.5-fold increase) was 1 to 3 µM.
Regarding `Cc1cn2nc(-c3cc(=O)n4nc(C5CCN(C)CC5)ccc4n3)cc2c(C)n1` [Compound 513, 2-(4,6-dimethylpyrazolo[1,5-a]pyrazin-2-yl)-7-(1-methylpiperidin-4-yl)-4H-pyrimido[1,2-b]pyridazin-4-one], the melting point lay in the range of 265 to 267 °C. Besides, in series [1], the “EC1.5x for Smn protein expression” value is listed as “**** (an EC1.5x≤0.3 μM is indicated by four stars (****))” and the “maximum fold (Fold) increase” value is recorded as “***** (a fold increase >1.65 is indicated by five stars (*****))”. Further, the EC (1.5-fold increase) in series [2] fell in the range of 0.1 to 0.3 µM.
`COc1ccc(-c2cc(=O)n3cc(N4CCN5CCC[C@H]5C4)cc(C)c3n2)cc1OC` [Compound 417, 2-(3,4-dimethoxyphenyl)-7-[(8aS)-hexahydropyrrolo[1,2-a]pyrazin-2(1H)-yl]-9-methyl-4H-pyrido[1,2-a]pyrimidin-4-one] yielded a melting point of 183 to 189 °C. Moreover, in series [1], the “EC1.5x for Smn protein expression” value was “** (an EC1.5× between >1 μM and ≤3 μM is indicated by two stars (**))”; the “maximum fold (Fold) increase” value was “**** (a fold increase between >1.5 and ≤1.65 is indicated by four stars (****))”. In series [2], the EC (1.5-fold increase) was in the range of 0.1 to 0.3 µM.
In turn, `CCN1CC=C(c2ccc3nc(-c4ccc5nc(C)oc5c4)cc(=O)n3c2)CC1` [Compound 304, 7-(1-ethyl-1,2,3,6-tetrahydropyridin-4-yl)-2-(2-methyl-1,3-benzoxazol-6-yl)-4H-pyrido[1,2-a]pyrimidin-4-one] showed a melting point of 128 to 131 °C. Besides, in series [1], the “EC1.5x for Smn protein expression” value is “**** (an EC1.5x≤0.3 μM is indicated by four stars (****))” and the “maximum fold (Fold) increase” value is “***** (a fold increase >1.65 is indicated by five stars (*****))”. In addition, the EC (1.5-fold increase) in series [2] is under 0.1 µM.
Take `CCN1CCN(c2ccc3nc(-c4cc(Cl)c5nc(C)cn5c4)cc(=O)n3c2)C[C@@H]1C` [Compound 496, 2-(8-chloro-2-methylimidazo[1,2-a]pyridin-6-yl)-7-[(3S)-4-ethyl-3-methylpiperazin-1-yl]-4H-pyrido[1,2-a]pyrimidin-4-one]: the melting point fell in the range of 234 to 245 °C. Moreover, in series [1], the “EC1.5x for Smn protein expression” value was “**** (an EC1.5x≤0.3 μM is indicated by four stars (****))” and the “maximum fold (Fold) increase” value was “***** (a fold increase >1.65 is indicated by five stars (*****))”. Besides, the EC (1.5-fold increase) in series [2] is under 0.1 µM.
